Data: ChEMBL document CHEMBL5729568, “Ras inhibitors” (2023)

Key:
[1] = (§1) Biochemical Assay: A variety of Ras proteins may be inhibited by compounds of the present invention (e.g., K-Ras, N-Ras, H-Ras, and mutants thereof at positions 12, 13 and 61, such as G12C, G12D, G12V, G12S, G13C, G13D, and Q61L, and others described herein). The purpose of this biochemical assay is to measure the ability of test compounds to covalently label nucleotide-loaded K-Ras isoforms. […] The sample is incubated at 25? C. for a time period of up to 24 hours prior to quenching by the addition of 10 uL of 5% Formic Acid. Quenched samples are centrifuged at 15000 rpm for 15 minutes in a benchtop centrifuge before injecting a 10 uL aliquot onto a reverse phase C4 column and eluting into the mass spectrometer with an increasing acetonitrile gradient in the mobile phase. Analysis of raw data may be carried out using Waters MassLynx MS software, with % bound calculated from the deconvoluted protein peaks for labeled and unlabeled K-Ras.
[2] = as §1; remark: listed apart in the source
[3] = as §1; remark: listed apart in the source
[4] = as §1; remark: listed apart in the source
[5] = as §1; remark: listed apart in the source

| IC50 [1] | IC50 [2] | IC50 [3] | IC50 [4] | IC50 [5] | SMILES |
| --- | --- | --- | --- | --- | --- |
| in the range around 5.5 µM | in the range around 0.55 µM | in the range around 5.5 µM | – | – | C=CC(=O)N1CC[C@]2(CCN(C(=O)N(C)[C@H](C(=O)N[C@@H]3Cc4cc(O)cc(c4)-c4ccc5c(c4)c(c(-c4ccccc4CCOC)n5CC)CC(C)(C)COC(=O)[C@@H]4CCCN(N4)C3=O)C(C)C)C2=O)C1 |
| in the range around 5.5 µM | – | in the range around 5.5 µM | in the range around 5.5 µM | – | C=CC(=O)C1C[C@@H](C(=O)N(C)[C@H](C(=O)N[C@@H]2Cc3cc(O)cc(c3)-c3cnc4c(c3)c(c(-c3ccccc3CCOC)n4CC)CC(C)(C)COC(=O)[C@@H]3CCCN(N3)C2=O)C(C)C)CN1 (stereo not given in full) |
| in the range around 5.5 µM | – | – | – | – | C=CC(=O)N1CC[C@H](C(=O)N(C)[C@H](C(=O)N[C@H]2Cc3cc(O)cc(c3)-c3cc(F)c4c(c3)c(c(-c3ccccc3CCOC)n4CC)CC(C)(C)COC(=O)[C@@H]3CCCN(N3)C2=O)C(C)C)C1 |
| in the range around 0.055 µM | in the range around 0.055 µM | in the range around 0.055 µM | – | in the range around 0.055 µM | C=CC(=O)N1CC[C@H](C(=O)N(C)[C@H](C(=O)N[C@H]2Cc3cc(O)cc(c3)-c3ccc4c(c3)c(c(-c3cnccc3[C@H](C)OC)n4CC)CC(C)(C)COC(=O)[C@@H]3CCCN(N3)C2=O)C(C)C)C1 |
| > 10 µM | > 10 µM | > 10 µM | in the range around 5.5 µM | > 10 µM | C=CC(=O)N1CC(OCC(C(=O)N[C@H]2Cc3cccc(c3)-c3ccc4c(c3)c(c(-c3cccnc3C(C)OC)n4CC(F)(F)F)CC(C)(C)COC(=O)[C@@H]3CCCN(N3)C2=O)C(C)C)C1 (stereo not given in full) |
| in the range around 0.55 µM | < 0.01 µM | in the range around 0.55 µM | < 0.01 µM | in the range around 0.55 µM | CCn1c(-c2cccnc2C(C)OC)c2c3cc(ccc31)-c1cc(O)cc(c1)C[C@H](NC(=O)[C@H](C(C)C)N(C)C(=O)c1ncc(NC(=O)/C=C/CN(C)C)n1C)C(=O)N1CCC[C@H](N1)C(=O)OCC(C)(C)C2 (stereo not given in full) |
| in the range around 5.5 µM | in the range around 0.055 µM | in the range around 5.5 µM | in the range around 0.055 µM | in the range around 5.5 µM | C=CC(=O)Nc1cnc(C(=O)N(C)[C@H](C(=O)N[C@H]2Cc3cccc(c3)-c3ccc4c(c3)c(c(-c3cccnc3C(C)OC)n4CC)CC(C)(C)COC(=O)[C@@H]3CCCN(N3)C2=O)C(C)C)n1C (stereo not given in full) |
| in the range around 0.55 µM | in the range around 0.55 µM | in the range around 0.55 µM | – | – | C=CC(=O)N1CC[C@H](C(=O)N(C)[C@H](C(=O)N[C@H]2Cc3cc(O)cc(c3)-c3ccc4c(c3)c(c(-c3ccncc3CCOC)n4CC)CC(C)(C)COC(=O)[C@@H]3CCCN(N3)C2=O)C(C)C)C1 |
| – | – | in the range around 5.5 µM | – | – | C=CC(=O)N1CC2(CCN([C@H](C(=O)N[C@H]3Cc4cc(O)cc(c4)-c4ccc5c(c4)c(c(-c4ccccc4CCOC)n5CC)CC(C)(C)COC(=O)[C@@H]4CCCN(N4)C3=O)C(C)C)C2=O)C1 |
| > 10 µM | > 10 µM | > 10 µM | > 10 µM | > 10 µM | C=CC(=O)N1CC(OCC(C(=O)N[C@H]2Cc3cc(cc(C(F)F)c3)-c3ccc4c(c3)c(c(-c3cccnc3C(C)OC)n4CC(F)(F)F)CC(C)(C)COC(=O)[C@@H]3CCCN(N3)C2=O)C(C)C)C1 (stereo not given in full) |
| in the range around 5.5 µM | in the range around 0.55 µM | in the range around 5.5 µM | < 0.01 µM | in the range around 5.5 µM | CCn1c(-c2cccnc2C(C)OC)c2c3cc(ccc31)-c1cccc(c1)C[C@H](NC(=O)[C@H](C(C)C)N(C)C(=O)[C@H]1CCN(C(=O)C#CC3CCO3)C1)C(=O)N1CCC[C@H](N1)C(=O)OCC(C)(C)C2 (stereo not given in full) |
| in the range around 0.55 µM | in the range around 5.5 µM | in the range around 5.5 µM | – | – | C=CC(=O)N1CC[C@H](C(=O)N(C)[C@H](C(=O)N[C@H]2Cc3cc(OC(=O)CCC(=O)O)cc(c3)-c3ccc4c(c3)c(c(-c3ccccc3CCOC)n4CC)CC(C)(C)COC(=O)[C@@H]3CCCN(N3)C2=O)C(C)C)C1 |
| in the range around 5.5 µM | in the range around 0.55 µM | in the range around 5.5 µM | in the range around 0.55 µM | in the range around 5.5 µM | CCn1c(-c2cccnc2C(C)OC)c2c3cc(ccc31)-c1cccc(c1)C[C@H](NC(=O)[C@H](C(C)C)N(C)C(=O)[C@H]1CCN(C(=O)/C=C/CF)C1)C(=O)N1CCC[C@H](N1)C(=O)OCC(C)(C)C2 (stereo not given in full) |
| > 10 µM | > 10 µM | > 10 µM | > 10 µM | > 10 µM | C=CC(=O)N1CC[C@H](C(=O)N(C)[C@H](C(=O)N[C@H]2Cc3nc(ns3)-c3ccc4c(c3)c(c(-c3cncnc3[C@H](C)OC)n4CC)CC(C)(C)CC=C[C@@H]3CCCN(N3)C2=O)C(C)C)C1 (stereo in doubt) |
| in the range around 0.55 µM | in the range around 5.5 µM | in the range around 0.55 µM | – | – | C=CC(=O)N1CC[C@H](C(=O)N(C)[C@H](C(=O)N[C@H]2Cc3cc(O)cc(c3)-c3ccc4c(c3)c(c(-c3ccccc3CO)n4CC)CC(C)(C)COC(=O)[C@@H]3CCCN(N3)C2=O)C(C)C)C1 |
| in the range around 5.5 µM | in the range around 0.55 µM | in the range around 5.5 µM | in the range around 0.055 µM | in the range around 5.5 µM | CCn1c(-c2cccnc2C(C)OC)c2c3cc(ccc31)-c1cccc(c1)C[C@H](NC(=O)[C@H](C(C)C)N(C)C(=O)[C@H]1CCN(C(=O)/C=C/C(F)F)C1)C(=O)N1CCC[C@H](N1)C(=O)OCC(C)(C)C2 (stereo not given in full) |
| > 10 µM | > 10 µM | > 10 µM | in the range around 0.55 µM | > 10 µM | CCn1c(-c2cccnc2C(C)OC)c2c3cc(ccc31)-c1cc(cc(C(F)F)c1)C[C@H](NC(=O)C(COC1CN(C(=O)C#CC(C)(C)N(C)C)C1)C(C)C)C(=O)N1CCC[C@H](N1)C(=O)OCC(C)(C)C2 (stereo not given in full) |
| in the range around 0.55 µM | in the range around 5.5 µM | in the range around 0.55 µM | – | – | CCn1c(-c2ccccc2CCOC)c2c3cc(ccc31)-c1cc(O)cc(c1)C[C@H](NC(=O)[C@H](C(C)C)N(C)C(=O)[C@H]1CCN(C(=O)/C=C/CN(C)C)C1)C(=O)N1CCC[C@H](N1)C(=O)OCC(C)(C)C2 |
| – | < 0.01 µM | – | < 0.01 µM | – | CCn1c(-c2cnccc2COC)c2c3cc(ccc31)-c1cc(O)cc(c1)C[C@H](NC(=O)[C@H](C(C)C)N(C)C(=O)[C@H]1CCN(C(=O)C#CCN(C)C)C1)C(=O)N1CCC[C@H](N1)C(=O)OCC(C)(C)C2 (atropisomer, axis not shown) |
| > 10 µM | in the range around 5.5 µM | > 10 µM | in the range around 5.5 µM | > 10 µM | C=CC(=O)N1CC[C@H](C(=O)N(C)[C@H](C(=O)N[C@H]2Cc3cccc(c3)-c3ccc4c(c3)c(c(-c3cc(C5=CCN(C)CC5)cnc3C(C)OC)n4CC)CC(C)(C)COC(=O)[C@@H]3CCCN(N3)C2=O)C(C)C)C1 (stereo not given in full) |
| in the range around 5.5 µM | in the range around 5.5 µM | in the range around 5.5 µM | in the range around 0.055 µM | > 10 µM | CCn1c(-c2cccnc2C(C)OC)c2c3cc(ccc31)-c1cccc(c1)C[C@H](NC(=O)[C@H](C(C)C)N(C)C(=O)[C@H]1CCN(C(=O)C#C[C@@H]3COCCN3C)C1)C(=O)N1CCC[C@H](N1)C(=O)OCC(C)(C)C2 (stereo not given in full) |
| – | in the range around 5.5 µM | > 10 µM | in the range around 5.5 µM | – | C=CC(=O)N1CC(OCC(C(=O)N[C@H]2Cc3cccc(c3)-c3ccc4c(c3)c(c(-c3cccnc3C(C)OC)n4CC)CC(C)(C)COC(=O)[C@@H]3CCCN(N3)C2=O)C(C)C)C1 (stereo not given in full) |
| > 10 µM | > 10 µM | > 10 µM | > 10 µM | > 10 µM | C=CC(=O)N1CC(OCC(C(=O)N[C@H]2Cc3cc(cc(C(F)F)c3)-c3ccc4c(c3)c(c(-c3cccnc3C(C)OC)n4CC)CC(C)(C)COC(=O)[C@@H]3CCCN(N3)C2=O)C(C)C)C1 (stereo not given in full) |
| in the range around 5.5 µM | in the range around 5.5 µM | in the range around 5.5 µM | in the range around 0.55 µM | in the range around 5.5 µM | C=CC(=O)N1CC(OCC(C(=O)N[C@H]2Cc3nc(cs3)-c3ccc4c(c3)c(c(-c3cccnc3C(C)OC)n4CC)CC(C)(C)COC(=O)[C@@H]3CCCN(N3)C2=O)C(C)C)C1 (stereo not given in full) |
| in the range around 5.5 µM | in the range around 5.5 µM | in the range around 5.5 µM | in the range around 0.55 µM | in the range around 5.5 µM | C=CC(=O)N1CC[C@H](C(=O)N(C)[C@H](C(=O)N[C@H]2Cc3cc(O)cc(c3)-c3ccc4c(c3)c(c(-c3cccnc3[C@H](C)OC)n4CC)CC(C)(C)COC(=O)[C@@H]3CCCN(N3)C2=O)C(C)C)C1 (atropisomer M) |

| SMILES | IC50 [1] | IC50 [2] | IC50 [3] | IC50 [4] | IC50 [5] |
| --- | --- | --- | --- | --- | --- |
| C=CC(=O)N1CC[C@H](C(=O)N(C)[C@H](C(=O)N[C@H]2Cc3cc(OC(=O)NCC(=O)O)cc(c3)-c3ccc4c(c3)c(c(-c3ccccc3CCOC)n4CC)CC(C)(C)COC(=O)[C@@H]3CCCN(N3)C2=O)C(C)C)C1 | in the range around 5.5 µM | in the range around 0.55 µM | in the range around 5.5 µM | – | – |
| CCn1c(-c2cccnc2[C@H](C)OC)c2c3cc(ccc31)-c1cc(O)cc(c1)C[C@H](NC(=O)[C@H](C(C)C)N(C)C(=O)c1nc(NC(=O)/C=C/CN(C)C)cs1)C(=O)N1CCC[C@H](N1)C(=O)OCC(C)(C)C2 | – | in the range around 0.055 µM | in the range around 5.5 µM | – | in the range around 5.5 µM |
